Experimental data published in patent US6031006A, “Method of treating diabetic nephropathy” (BioNumerik Pharmaceuticals, Inc., priority 1999, dated 2000).

What was measured:
dogs = details: intravenous; cited from earlier work
humans = details: cited from earlier work
[1] = molecular target: T1, aldose reductase (human recombinant, expressed in SF 9 cells) (Homo sapiens, UniProt P15121); test: Aldose reductase assay, NADPH dependent reduction of glyceraldehyde; assay type: biochemical; details: substrate glyceraldehyde 0.050-6 mM, 37° C., Lineweaver Burk analysis, read-out: Ki, inhibition of aldose reductase catalyzed reduction of glyceraldehyde to aldose
Procedure: (§1) Aldose reductase assays were as described in Nishimura C., Yamaoka T., Mizutani M., Yamashita K., Akera T., Tanimoto T., Purification And Characterization Of The Recombinant Human Aldose Reductase Expressed In Baculovirus System, Biochem. Biophys. Acta, Jun. 24, 1991; 1078(2):171-8.
(§2) Briefly, Dimesna (0-20 μM) was incubated at 37° C. with aldose reductase (0.0016 units, human recombinant, expressed in SF 9 cells) and NADPH (0.15 mM) in sodium phosphate buffer (100 mM, pH 6.2). To initiate assays, glucose (10-150 mM) was added to reactions and the decrease in absorbance at 340 nm (oxidation of NADPH) was monitored. Assays were run in duplicate or triplicate. Slopes were calculated using Varian-Cary software package 2.0 and averaged. In all cases errors were 4% or less. Lineweaver Burk analysis (Enzyme Kinetics, version 1.61) was used to calculate inhibition constants.
Aldose reductase assays were as described above. Dimesna (0-30 mM) was evaluated for its effect on the NADPH dependent reduction of glyceraldehyde (0.050-6 mM) to aldose at 37° C. Assays were run in duplicate or triplicate. Slopes were calculated using Varian-Cary software package 2.0 and averaged. In all cases errors were 4% or less. Lineweaver Burk analysis (Enzyme Kinetics, version 1.61) was used to calculate inhibition constants.

[2] = molecular target: T1, aldose reductase (human recombinant, expressed in SF 9 cells); test: Aldose reductase assay, reduction of glucose to sorbitol (NADPH oxidation, absorbance at 340 nm); assay type: biochemical
Procedure: as §1, §2

mice = details: intravenous; cited from earlier work
[3] = accepted value; cited from earlier work

Structure (SMILES) | Dose administered with no adverse effects (dogs) | Dose administered with no adverse effects (humans) | Ki [1] | Type of inhibition of the aldose reductase reaction ([2]; Lineweaver Burk plots nearly parallel, glucose and glyceraldehyde substrates) | Ki ([2]; substrate glucose 10-150 mM, NADPH 0.15 mM, pH 6.2, 37° C., Lineweaver Burk analysis, read-out: Ki, inhibition of aldose reductase catalyzed reduction of glucose to sorbitol) | Dose administered with no adverse effects (mice) | oral LD50 [3]
O=S(=O)([O-])CCSSCCS(=O)(=O)[O-].[Na+].[Na+] [Dimesna, disodium 2,2'-dithiobis ethane sulfonate] | > 3750 mg/kg | exceeding 15 g/m^2 | 15.5 µM | uncompetitive inhibition | 32 µM | > 3750 mg/kg | –
[Cl-].[Na+] [common table salt] | – | – | – | – | – | – | 3750 mg/kg
